In ChEMBL document CHEMBL4334492, “Nectriatide, a Potentiator of Amphotericin B Activity from Nectriaceae sp. BF-0114” (J Nat Prod, 2019):
≈ marks a conversion by molar mass, not a printed value. Non-standard residues stand in square brackets, D forms with d. Residues, ends and D or L forms follow the SMILES beside them. *: point of attachment. NMeY = CN[C@@H](Cc1ccc(O)cc1)C(=O)O; 2Abz = Nc1ccccc1C(=O)O; tBu = CC(C)(C)*

Experiments:
Candida albicans [1] = assay: Potentiation of amphotericin-induced antifungal activity against Candida albicans ATCC 90029 assessed as amphotericin MIC at 8 ug/ml after 24 hrs by broth microdilution method (reference value: 0.5 ug/ml); type: functional; details: ATCC 90029, 24 h
Candida albicans [2] = assay: Potentiation of amphotericin-induced antifungal activity against Candida albicans ATCC 90029 assessed as fold reduction in amphotericin MIC at 8 ug/ml after 24 hrs by broth microdilution method relative to amphotericin MIC alone; type: functional
Candida albicans [3] = assay: Potentiation of amphotericin-induced antifungal activity against Candida albicans ATCC 90029 assessed as amphotericin MIC at 16 ug/ml after 24 hrs by broth microdilution method (reference value: 0.5 ug/ml); type: functional; details: ATCC 90029, 24 h
Candida albicans [4] = assay: Potentiation of amphotericin-induced antifungal activity against Candida albicans ATCC 90029 assessed as fold reduction in amphotericin MIC at 32 ug/ml after 24 hrs by broth microdilution method relative to amphotericin MIC alone; type: functional
Candida albicans [5] = assay: Potentiation of amphotericin-induced antifungal activity against Candida albicans ATCC 90029 assessed as amphotericin MIC at 32 ug/ml after 24 hrs by broth microdilution method (reference value: 0.5 ug/ml); type: functional; details: ATCC 90029, 24 h
Candida albicans [6] = assay: Potentiation of amphotericin-induced antifungal activity against Candida albicans ATCC 90029 assessed as fold reduction in amphotericin MIC at 16 ug/ml after 24 hrs by broth microdilution method relative to amphotericin MIC alone; type: functional
HEK293 = assay: Cytotoxicity against human HEK293 cells assessed as reduction in cell viability after 24 hrs by MTT assay; type: cell-based; details: HEK293, 24 h
Candida albicans [7] = assay: Potentiation of amphotericin-induced antifungal activity against Candida albicans ATCC 90029 assessed as fold reduction in amphotericin MIC at 4 ug/ml after 24 hrs by broth microdilution method relative to amphotericin MIC alone; type: functional
Candida albicans [8] = assay: Potentiation of amphotericin-induced antifungal activity against Candida albicans ATCC 90029 assessed as amphotericin MIC at 2 ug/ml after 24 hrs by broth microdilution method (reference value: 0.5 ug/ml); type: functional; details: ATCC 90029, 24 h
Candida albicans [9] = assay: Potentiation of amphotericin-induced antifungal activity against Candida albicans ATCC 90029 assessed as fold reduction in amphotericin MIC at 2 ug/ml after 24 hrs by broth microdilution method relative to amphotericin MIC alone; type: functional
Candida albicans [10] = assay: Potentiation of amphotericin-induced antifungal activity against Candida albicans ATCC 90029 assessed as amphotericin MIC at 4 ug/ml after 24 hrs by broth microdilution method (reference value: 0.5 ug/ml); type: functional; details: ATCC 90029, 24 h

Work on `CC(C)[C@H](NC(=O)[C@H](C)NC(=O)c1ccccc1N)C(=O)N(C)[C@@H](Cc1ccc(OC(C)(C)C)cc1)C(=O)O` (H-[2Abz]AV[NMeY](tBu)-OH) yielded an MIC (Candida albicans [1]) of 0.25 µg/mL, a Ratio (Candida albicans [2]) of 2 and an MIC (Candida albicans [3]) of 0.13 µg/mL. It also gave a Ratio (Candida albicans [4]) of 4, an MIC (Candida albicans [5]) of 0.13 µg/mL and a Ratio (Candida albicans [6]) of 4.

With `C[C@@H]1[C@H](O)[C@@H](C)/C=C/C=C/C=C/C=C/C=C/C=C/C=C/[C@H](O[C@@H]2O[C@H](C)[C@@H](O)[C@H](N)[C@@H]2O)C[C@@H]2O[C@](O)(C[C@@H](O)C[C@@H](O)[C@H](O)CC[C@@H](O)C[C@@H](O)CC(=O)O[C@H]1C)C[C@H](O)[C@H]2C(=O)O` [AMPHOTERICIN B] the IC50 (HEK293) was 15 µg/mL (≈ 16.2 µM).

Compound `CC(C)[C@H](NC(=O)[C@H](C)N)C(=O)N(C)[C@@H](Cc1ccc(OC(C)(C)C)cc1)C(=O)Nc1ccccc1C(=O)O` (H-AV[NMeY](tBu)[2Abz]-OH) has an MIC (Candida albicans [1]) of 0.031 µg/mL, an MIC (Candida albicans [3]) of 0.031 µg/mL and a Ratio (Candida albicans [4]) of 16. The Ratio (Candida albicans [7]) was 4, the MIC (Candida albicans [5]) was 0.031 µg/mL and the MIC (Candida albicans [8]) was 0.25 µg/mL. It also gave a Ratio (Candida albicans [6]) of 16, a Ratio (Candida albicans [9]) of 2 and an MIC (Candida albicans [10]) of 0.13 µg/mL.

`CN[C@@H](Cc1ccc(OC(C)(C)C)cc1)C(=O)Nc1ccccc1C(=O)N[C@@H](C)C(=O)O` showed a Ratio (Candida albicans [4]) of 2 and an MIC (Candida albicans [5]) of 0.25 µg/mL.

Work on `CC(C)[C@H](N)C(=O)N(C)[C@@H](Cc1ccc(OC(C)(C)C)cc1)C(=O)Nc1ccccc1C(=O)N[C@@H](C)C(=O)O` (H-V[NMeY](tBu)[2Abz]A-OH) yielded an MIC (Candida albicans [1]) of 0.25 µg/mL, a Ratio (Candida albicans [2]) of 2 and an MIC (Candida albicans [3]) of 0.13 µg/mL. It also gave a Ratio (Candida albicans [4]) of 8, an MIC (Candida albicans [5]) of 0.063 µg/mL and a Ratio (Candida albicans [6]) of 4.

`CC(C)[C@H]1NC(=O)[C@H](C)NC(=O)c2ccccc2NC(=O)[C@H](Cc2ccc(O)cc2)N(C)C1=O` showed an MIC (Candida albicans [1]) of 0.13 µg/mL, a Ratio (Candida albicans [2]) of 4 and an MIC (Candida albicans [3]) of 0.063 µg/mL. The Ratio (Candida albicans [4]) was 16, the MIC (Candida albicans [5]) was 0.031 µg/mL and the Ratio (Candida albicans [6]) was 8.
